Experimental data as given in PMC7316994, “In Vitro Pharmacological Profile of a New Small Molecule Bradykinin B2 Receptor Antagonist” (Frontiers in Pharmacology, 2020).
“And” between values parts separate entries of the source, which are not always exact repeats. Equal entries are not always repeated.

Legend:
kinin B1 receptor = target: T1, kinin B1 receptor (Homo sapiens, UniProt P46663); experiment: umbilical vein, Sar-[D-Phe^8]des-Arg^9-BK-induced contraction; conditions: 1 μM
T1 construct: during the 3-hour incubation period to upregulate the expression of B1; from tissue; host or cells: human umbilical vein rings pre-incubated with interleukin-1β and tumor necrosis factor-α

mouse B2 receptor = target: T2, mouse B2 receptor (Mus musculus, UniProt P32299); experiment: Ca^2+ mobilization assay, HEK293T cells; assay type: cell-based; conditions: BK at EC80 0.53 nM, n=1
T2 construct: host or cells: HEK293T cells
T2 sequence (P32299 1-392): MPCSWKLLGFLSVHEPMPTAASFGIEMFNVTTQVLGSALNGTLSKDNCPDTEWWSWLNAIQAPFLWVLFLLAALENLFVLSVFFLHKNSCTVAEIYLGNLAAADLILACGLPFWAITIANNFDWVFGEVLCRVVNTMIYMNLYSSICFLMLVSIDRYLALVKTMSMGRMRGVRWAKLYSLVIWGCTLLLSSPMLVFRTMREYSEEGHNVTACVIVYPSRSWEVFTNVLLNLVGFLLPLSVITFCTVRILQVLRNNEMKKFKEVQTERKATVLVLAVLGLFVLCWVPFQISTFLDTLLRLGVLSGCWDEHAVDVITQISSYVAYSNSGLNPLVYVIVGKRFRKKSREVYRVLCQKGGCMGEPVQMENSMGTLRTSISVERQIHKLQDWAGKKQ

dog B2 receptor = target: T3, dog B2 receptor (Canis lupus familiaris, UniProt Q9BDQ4); experiment: Ca^2+ mobilization assay, HEK293T cells; assay type: cell-based; conditions: Dog; BK at EC80 1.86 nM; n=1; read-out: IC50 (nM) Mean
T3 sequence (Q9BDQ4 1-392): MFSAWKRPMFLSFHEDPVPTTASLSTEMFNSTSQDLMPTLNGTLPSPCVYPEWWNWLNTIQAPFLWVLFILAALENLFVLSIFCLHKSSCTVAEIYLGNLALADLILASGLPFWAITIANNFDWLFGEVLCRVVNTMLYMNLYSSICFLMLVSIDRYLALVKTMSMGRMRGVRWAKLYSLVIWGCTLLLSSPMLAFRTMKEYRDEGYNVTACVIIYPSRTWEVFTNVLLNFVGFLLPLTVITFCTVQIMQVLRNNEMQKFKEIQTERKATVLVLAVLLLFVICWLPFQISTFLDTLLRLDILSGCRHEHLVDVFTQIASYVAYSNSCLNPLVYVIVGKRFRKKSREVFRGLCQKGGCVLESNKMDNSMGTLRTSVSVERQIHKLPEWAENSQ

rat B2 receptor = target: T4, rat B2 receptor (Rattus norvegicus, UniProt P25023); experiment: Ca^2+ mobilization assay, HEK293T cells; assay type: cell-based; conditions: BK at EC80 4.32 nM
T4 construct: host or cells: HEK293T cells
T4 sequence (P25023 1-396): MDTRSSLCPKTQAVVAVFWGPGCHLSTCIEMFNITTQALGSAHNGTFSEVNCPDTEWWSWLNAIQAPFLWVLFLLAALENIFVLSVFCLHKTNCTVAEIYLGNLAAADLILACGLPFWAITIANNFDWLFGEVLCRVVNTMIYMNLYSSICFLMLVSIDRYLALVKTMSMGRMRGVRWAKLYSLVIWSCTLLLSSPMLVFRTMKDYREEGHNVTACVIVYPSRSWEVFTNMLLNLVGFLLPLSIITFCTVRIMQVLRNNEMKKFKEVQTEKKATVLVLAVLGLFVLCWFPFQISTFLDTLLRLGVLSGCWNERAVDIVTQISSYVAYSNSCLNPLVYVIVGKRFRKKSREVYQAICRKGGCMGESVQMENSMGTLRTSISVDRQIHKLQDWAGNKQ

[1] = target: T5, endogenous human B2 receptor (Homo sapiens, UniProt P30411); experiment: human isolated umbilical vein contractility assay, BK-induced contraction; conditions: for Maximal BK-induced response in absolute force units ± S.E.M.: vehicle: Icatibant 1.90, Compound 1 […]
T5 construct: BK-induced contraction at endogenous human B2 receptor in the umbilical vein model; from tissue; host or cells: human umbilical vein rings (donor cords after elective caesarean section)
T5 sequence (P30411 1-391): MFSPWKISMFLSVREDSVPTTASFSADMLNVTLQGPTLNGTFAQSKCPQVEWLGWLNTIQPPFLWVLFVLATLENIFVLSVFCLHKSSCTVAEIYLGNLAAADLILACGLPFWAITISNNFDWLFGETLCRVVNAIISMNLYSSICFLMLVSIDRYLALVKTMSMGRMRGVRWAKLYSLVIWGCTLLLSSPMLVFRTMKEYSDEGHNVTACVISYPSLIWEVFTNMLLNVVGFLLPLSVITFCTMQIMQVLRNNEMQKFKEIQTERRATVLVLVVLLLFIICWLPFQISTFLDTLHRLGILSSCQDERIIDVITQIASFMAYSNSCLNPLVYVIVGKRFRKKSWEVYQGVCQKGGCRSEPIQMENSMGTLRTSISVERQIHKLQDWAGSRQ

Neurokinin NK2 = target: T6, Neurokinin NK2 (Homo sapiens, UniProt P21452); design: method as in FDA Pharmacology Review Icatibant; conditions: ref FDA Pharmacology Review Icatibant; read-out: IC50, binding to NK2 receptors; cited from earlier work
T6 construct: host or cells: CHO cells
T6 sequence (P21452 1-398): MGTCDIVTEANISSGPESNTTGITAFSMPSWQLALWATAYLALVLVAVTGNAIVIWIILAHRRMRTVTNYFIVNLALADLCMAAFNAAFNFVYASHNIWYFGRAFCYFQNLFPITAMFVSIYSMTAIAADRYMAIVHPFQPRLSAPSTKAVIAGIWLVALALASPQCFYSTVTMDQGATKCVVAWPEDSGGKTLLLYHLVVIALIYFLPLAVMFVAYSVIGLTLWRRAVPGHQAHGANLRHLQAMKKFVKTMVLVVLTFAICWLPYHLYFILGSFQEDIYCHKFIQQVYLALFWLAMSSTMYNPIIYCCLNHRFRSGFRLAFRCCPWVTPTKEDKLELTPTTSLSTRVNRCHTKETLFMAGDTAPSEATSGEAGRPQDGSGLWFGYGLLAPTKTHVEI

[2] = target: T5, endogenous human B2 receptor; design: method as in Marceau et al., 1994; conditions: umbilical vein; ref Marceau et al., 1994; cited from earlier work
[3] = target: T7, cynomolgus monkey B2 receptor (Macaca fascicularis, UniProt A0A7N9CWN6); experiment: cell-based
T7 sequence (A0A7N9CWN6 1-391): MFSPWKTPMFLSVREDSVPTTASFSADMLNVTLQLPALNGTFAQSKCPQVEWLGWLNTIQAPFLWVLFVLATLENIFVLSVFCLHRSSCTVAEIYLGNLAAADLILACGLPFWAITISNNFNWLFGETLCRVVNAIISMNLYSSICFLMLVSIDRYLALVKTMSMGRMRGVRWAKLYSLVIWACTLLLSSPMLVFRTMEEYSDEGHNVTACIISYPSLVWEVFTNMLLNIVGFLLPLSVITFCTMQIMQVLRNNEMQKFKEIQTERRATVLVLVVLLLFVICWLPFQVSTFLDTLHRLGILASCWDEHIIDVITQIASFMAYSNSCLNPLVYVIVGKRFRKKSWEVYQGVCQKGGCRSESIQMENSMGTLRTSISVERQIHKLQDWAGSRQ

T1 sequence (P46663 whole entry): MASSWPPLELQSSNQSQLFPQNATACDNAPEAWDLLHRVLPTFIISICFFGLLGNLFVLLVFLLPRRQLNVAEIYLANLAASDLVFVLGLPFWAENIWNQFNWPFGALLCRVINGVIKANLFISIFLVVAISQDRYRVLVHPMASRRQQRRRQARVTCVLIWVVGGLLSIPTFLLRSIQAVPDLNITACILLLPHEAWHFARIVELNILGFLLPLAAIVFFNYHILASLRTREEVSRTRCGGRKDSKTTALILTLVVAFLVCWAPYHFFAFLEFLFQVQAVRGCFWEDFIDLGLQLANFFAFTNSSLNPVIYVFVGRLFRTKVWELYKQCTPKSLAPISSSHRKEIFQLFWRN

NC(N)=NCCC[C@@H](N)C(=O)N[C@@H](CCCN=C(N)N)C(=O)N1CCC[C@H]1C(=O)N1C[C@H](O)C[C@H]1C(=O)NCC(=O)N[C@@H](Cc1cccs1)C(=O)N[C@@H](CO)C(=O)N1Cc2ccccc2C[C@@H]1C(=O)N1[C@H](C(=O)N[C@@H](CCCN=C(N)N)C(=O)O)C[C@@H]2CCCC[C@@H]21 [icatibant, reference compound]
effect on contraction by B1 receptor agonist Sar-[D-Phe^8]des-Arg^9-BK (kinin B1 receptor): failed to antagonize | IC50 (mouse B2 receptor): 15.5 nM | IC50 (dog B2 receptor): 87.1 nM | IC50 (rat B2 receptor): 37.4 nM | type of antagonism of BK ([1]; BK concentration-effect curves, Emax): competitive (surmountable) antagonist | Schild plot slope ([1]; Schild regression, Pharm/PCS, ± S.E.M. where given): -0.85 ± 0.16 and −0.85 | Maximal BK-induced response in absolute force units ± S.E.M. ([1]; antagonist 10 nM, Compound 2 2.25, Compound 3 1.52): 1.47 ± 0.19 grams-weight | Maximal BK-induced response in absolute force units ± S.E.M. ([1]; antagonist 100 nM, Compound 2 2.25, Compound 3 1.52): 1.50 ± 0.27 grams-weight | Maximal BK-induced response in absolute force units ± S.E.M. ([1]; antagonist 1 μM, Compound 2 2.25, Compound 3 1.52): 1.40 ± 0.22 grams-weight | Maximal BK-induced response in absolute force units ± S.E.M. ([1]; antagonist 10 μM, Compound 2 2.25): 1.27 ± 0.17 grams-weight | pA2 value converted into nM ([1]; potency from pA2): 8.71 nM and 8.7 nM | IC50 (Neurokinin NK2): 420 nM | pA2, previously reported value [2]: 8.2 | IC50 [3]: 17.1 nM | Kb [3]: 4.06 nM
